In PubChem BioAssay AID256 (DTP/NCI, 2004):
Where “and” joins values, the source holds several entries; their conditions need not be identical. Equal values may be shown once. Inconclusive results and toxic doses are left out. Rule for the calls: active = survival T/C of 150% or more; inactive = T/C below 125% in these data.

System: CD2F1 mice, L1210 leukemia ip, survival T/C
Experiment: NCI In Vivo Anticancer Drug Screen. Data for tumor model L1210 Leukemia (intraperitoneal) in CD2F1 (CDF1) mice
Settings: higher = longer survival
Outline: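 In this screen, transplantable tumors were grown in mice given either the compound or its vehicle. Results were expressed as the treated measurement relative to the control measurement.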

[1] = endpoint: mean survival time, dose: 100.0 mg/kg/injection, schedule: Q01DX009 (ip), vehicle: saline with Tween-80
[2] = endpoint: mean survival time, dose: 100.0 mg/kg/injection, schedule: Q04DX003 (ip), vehicle: saline with Tween-80
[3] = endpoint: mean survival time, dose: 200.0 mg/kg/injection, schedule: Q01DX009 (ip), vehicle: saline with Tween-80
[4] = endpoint: mean survival time, dose: 200.0 mg/kg/injection, schedule: Q04DX003 (ip), vehicle: saline with Tween-80
[5] = endpoint: mean survival time, dose: 400.0 mg/kg/injection, schedule: Q01DX009 (ip), vehicle: saline with Tween-80
[6] = endpoint: mean survival time, dose: 400.0 mg/kg/injection, schedule: Q04DX003 (ip), vehicle: saline with Tween-80
[7] = endpoint: mean survival time, dose: 100.0 mg/kg/injection, schedule: Q01DX009 (ip), vehicle: saline
[8] = endpoint: mean survival time, dose: 400.0 mg/kg/injection, schedule: Q01DX009 (ip), vehicle: saline
[9] = endpoint: mean survival time, dose: 50.0 mg/kg/injection, schedule: Q01DX009 (ip), vehicle: saline
[10] = endpoint: mean survival time, dose: 50.0 mg/kg/injection, schedule: Q04DX003 (ip), vehicle: saline
[11] = endpoint: mean survival time, dose: 100.0 mg/kg/injection, schedule: Q04DX003 (ip), vehicle: saline
[12] = endpoint: mean survival time, dose: 200.0 mg/kg/injection, schedule: Q01DX009 (ip), vehicle: saline
[13] = endpoint: mean survival time, dose: 200.0 mg/kg/injection, schedule: Q04DX003 (ip), vehicle: saline

Measured: T/C

CC1=[S+]c2ccccc2C2Nc3ccccc3C12 (stereo not given)
inactive: endpoint: mean survival time, dose: 100.0 mg/kg/injection, schedule: Q04DX003 (ip), vehicle: acetone 103 % of control | endpoint: mean survival time, dose: 200.0 mg/kg/injection, schedule: Q04DX003 (ip), vehicle: acetone 105 % of control

O=C1C(F)=C(F)C(=O)C(F)=C1F
inactive: endpoint: mean survival time, dose: 3.12 mg/kg/injection, schedule: Q01DX009 (ip), vehicle: Klucel (hydroxypropylcellulose) (HPC) 97 % of control | endpoint: mean survival time, dose: 6.25 mg/kg/injection, schedule: Q01DX009 (ip), vehicle: Klucel (hydroxypropylcellulose) (HPC) 98 % of control

C#CCCCN1CCC2(CC1)C(=O)N(C(=O)N(C)C)CN2c1ccccc1
inactive: endpoint: mean survival time, dose: 25.0 mg/kg/injection, schedule: Q01DX009 (ip), vehicle: saline with Tween-80 100 % of control | endpoint: mean survival time, dose: 50.0 mg/kg/injection, schedule: Q01DX009 (ip), vehicle: saline with Tween-80 96 % of control | [1] 97 % of control

CCc1ccccc1NC(=O)c1cccc(Cl)c1
inactive: [1] 98 % of control | [2] 94 % of control | [3] 91 % of control | [4] 96 % of control | [5] 96 % of control | [6] 96 % of control

CCC1(O)C(=O)OCc2c1cc1n(c2=O)Cc2cc3ccc(C(=O)OC)cc3nc2-1 (stereo not given)
inactive: endpoint: median survival time, dose: 10.0 mg/kg/injection, schedule: Q04DX002 (ip), vehicle: saline with Tween-80 107 % of control | endpoint: median survival time, dose: 20.0 mg/kg/injection, schedule: Q04DX002 (ip), vehicle: saline with Tween-80 100 % of control | endpoint: median survival time, dose: 40.0 mg/kg/injection, schedule: Q04DX002 (ip), vehicle: saline with Tween-80 106 % of control | endpoint: median survival time, dose: 80.0 mg/kg/injection, schedule: Q04DX002 (ip), vehicle: saline with Tween-80 107 % of control

O=[N+]([O-])c1ccc(Nc2ccc(Br)cc2)c([N+](=O)[O-])c1
inactive: [2] 95 % of control | [4] 93 % of control

COc1ccc(O)c(C=O)c1
inactive: [2] 100 % of control | [4] 110 % of control | [6] 95 % of control

NC(N)=NO
inactive: endpoint: mean survival time, dose: 25.0 mg/kg/injection, schedule: Q01DX009 (ip), vehicle: water 113 % of control | endpoint: mean survival time, dose: 50.0 mg/kg/injection, schedule: Q01DX009 (ip), vehicle: water 124 % of control | endpoint: mean survival time, dose: 200.0 mg/kg/injection, schedule: Q01DX009 (ip), vehicle: water 117 % of control | endpoint: mean survival time, dose: 300.0 mg/kg/injection, schedule: Q01DX009 (ip), vehicle: water 116 % of control | endpoint: mean survival time, dose: 500.0 mg/kg/injection, schedule: Q01DX009 (ip), vehicle: water 124 % of control

c1ccc2c(c1)OC1(CCCCC1)O2
inactive: [2] 100 % of control | [4] 103 % of control | [6] 102 % of control

O=C(NC1CCCCC1)OCC#CC#CCOC(=O)NC1CCCCC1
inactive: endpoint: mean survival time, dose: 100.0 mg/kg/injection, schedule: Q04DX003 (ip), vehicle: Klucel (hydroxypropylcellulose) (HPC) 94 % of control | endpoint: mean survival time, dose: 200.0 mg/kg/injection, schedule: Q04DX003 (ip), vehicle: Klucel (hydroxypropylcellulose) (HPC) 96 % of control | endpoint: mean survival time, dose: 400.0 mg/kg/injection, schedule: Q04DX003 (ip), vehicle: Klucel (hydroxypropylcellulose) (HPC) 100 % of control

CN(C)CCN(C)C
inactive: [7] 96 % of control | [8] 106 % of control

Cc1ccc(S(=O)(=O)OC2CCC3(C)C(CCC4C3CCC3(C)C(C(C)CCCC(C)C)CCC43)C2)cc1 (stereo not given)
inactive: [2] 92 % of control | [4] 90 % of control | [6] 89 % of control

CCOC(=O)NC(=O)CC#N
inactive: [2] 101 % of control | [4] 93 % of control | [6] 103 % of control

CCOC(=O)/C=C/SCCCC(=O)O
inactive: endpoint: mean survival time, dose: 100.0 mg/kg/injection, schedule: Q01DX001 (ip), vehicle: saline with Tween-80 100 % of control | endpoint: mean survival time, dose: 200.0 mg/kg/injection, schedule: Q01DX001 (ip), vehicle: saline with Tween-80 105 % of control | endpoint: mean survival time, dose: 400.0 mg/kg/injection, schedule: Q01DX001 (ip), vehicle: saline with Tween-80 95 % of control

O=c1[nH]c(=O)n(C2CC(O)C(CO)O2)cc1I (stereo not given)
inactive: endpoint: mean survival time, dose: 50.0 mg/kg/injection, schedule: Q01DX007 (ip), vehicle: saline 110 % of control | [9] 106 % of control | endpoint: mean survival time, dose: 50.0 mg/kg/injection, schedule: Q03DX003 (ip), vehicle: saline 104 % of control | [10] 101 % of control | endpoint: mean survival time, dose: 100.0 mg/kg/injection, schedule: Q01DX007 (ip), vehicle: saline 117 % of control | [7] 108 % of control | endpoint: mean survival time, dose: 100.0 mg/kg/injection, schedule: Q03DX003 (ip), vehicle: saline 107 % of control | [11] 106 % of control | endpoint: mean survival time, dose: 200.0 mg/kg/injection, schedule: Q01DX007 (ip), vehicle: saline 108 % of control | [12] 111 % of control | endpoint: mean survival time, dose: 200.0 mg/kg/injection, schedule: Q03DX003 (ip), vehicle: saline 115 % of control | [13] 106 % of control | endpoint: mean survival time, dose: 500.0 mg/kg/injection, schedule: Q01DX009 (ip), vehicle: saline 107 % of control | endpoint: mean survival time, dose: 1000.0 mg/kg/injection, schedule: Q01DX009 (ip), vehicle: saline 103 % of control

COc1ccc(CC(N)C(=O)O)cc1N(CCCl)CCCl (stereo not given)
inactive: endpoint: mean survival time, dose: 3.2 mg/kg/injection, schedule: Q01DX001 (ip), vehicle: carboxymethylcellulose (CMC) 122 % of control

CCCc1cc(CCC)nc(NNc2nc(CCC)cc(CCC)n2)n1
inactive: [2] 96 % of control | [4] 94 % of control | [6] 96 % of control

O=C(Oc1cccc(O)c1)c1ccccc1
inactive: [1] 104 % of control | [2] 89 % of control | [3] 100 % of control | [4] 92 % of control | [5] 96 % of control | [6] 101 % of control

CC1(C)OC2C(/C=C3/CC(=O)NC3=O)OC(n3ccc(=O)[nH]c3=O)C2O1 (stereo not given)
inactive: endpoint: mean survival time, dose: 12.5 mg/kg/injection, schedule: Q01DX005 (ip), vehicle: distilled water + Tween-80 100 % of control | endpoint: mean survival time, dose: 25.0 mg/kg/injection, schedule: Q01DX005 (ip), vehicle: distilled water + Tween-80 100 % of control | endpoint: mean survival time, dose: 50.0 mg/kg/injection, schedule: Q01DX005 (ip), vehicle: distilled water + Tween-80 103 % of control | endpoint: mean survival time, dose: 100.0 mg/kg/injection, schedule: Q01DX005 (ip), vehicle: distilled water + Tween-80 100 % of control | endpoint: mean survival time, dose: 200.0 mg/kg/injection, schedule: Q01DX005 (ip), vehicle: distilled water + Tween-80 103 % of control

CC(C)N=C1N(C(C)C)C([O-])=N[N+]1(C)C
inactive: [7] 101 % of control | [11] 108 % of control | [12] 101 % of control | [13] 96 % of control | [8] 101 % of control | endpoint: mean survival time, dose: 400.0 mg/kg/injection, schedule: Q04DX003 (ip), vehicle: saline 107 % of control

CN(C)Cc1[c-]c(CN(C)C)ccc1.[Br][Pt]
inactive: endpoint: mean survival time, dose: 3.12 mg/kg/injection, schedule: Q04DX003 (ip), vehicle: saline 96 % of control | endpoint: mean survival time, dose: 6.25 mg/kg/injection, schedule: Q04DX003 (ip), vehicle: saline 97 % of control | endpoint: mean survival time, dose: 12.5 mg/kg/injection, schedule: Q04DX003 (ip), vehicle: saline 97 % of control | endpoint: mean survival time, dose: 25.0 mg/kg/injection, schedule: Q04DX003 (ip), vehicle: saline 108 % of control | [10] 97 % of control | [11] 105 % of control | [13] 100 % of control

CS(=O)(=O)OCCNc1ccc([N+](=O)[O-])cc1
inactive: endpoint: mean survival time, dose: 8.0 mg/kg/injection, schedule: Q01DX001 (ip), vehicle: saline 100 % of control | endpoint: mean survival time, dose: 10.0 mg/kg/injection, schedule: Q01DX010 (ip), vehicle: saline 103 % of control | endpoint: mean survival time, dose: 16.0 mg/kg/injection, schedule: Q01DX001 (ip), vehicle: saline 95 % of control | endpoint: mean survival time, dose: 30.0 mg/kg/injection, schedule: Q01DX010 (ip), vehicle: saline 113 % of control | endpoint: mean survival time, dose: 32.0 mg/kg/injection, schedule: Q01DX001 (ip), vehicle: saline 98 % of control | endpoint: mean survival time, dose: 64.0 mg/kg/injection, schedule: Q01DX001 (ip), vehicle: saline 90 % of control and 100 % of control | endpoint: mean survival time, dose: 100.0 mg/kg/injection, schedule: Q01DX010 (ip), vehicle: saline 119 % of control | endpoint: mean survival time, dose: 128.0 mg/kg/injection, schedule: Q01DX001 (ip), vehicle: saline 96 % of control | endpoint: mean survival time, dose: 256.0 mg/kg/injection, schedule: Q01DX001 (ip), vehicle: saline 96 % of control | endpoint: mean survival time, dose: 300.0 mg/kg/injection, schedule: Q01DX010 (ip), vehicle: saline 97 % of control

CC(=O)c1ccc(NCN2C(=O)c3ccccc3C2=O)cc1
inactive: [1] 96 % of control | [3] 98 % of control | [5] 98 % of control

O=C1CCCN1
inactive: [9] 91 % of control | [7] 98 % of control | [12] 89 % of control

Ic1ncnc2c1ncn2C1CCCO1 (stereo not given)
inactive: [10] 96 % of control | [11] 94 % of control | [13] 94 % of control
